Columns and labels:
[1] = (§1) Binding affinity to Aquifex aeolicus sodium-coupled leucine transporter
[2] = tested on: Aquifex aeolicus; assay: as §1
[3] = Inhibition of L-[3H]Leu uptake at Aquifex aeolicus sodium-coupled leucine transporter
[4] = Inhibition of L-[3H]Ala uptake at Aquifex aeolicus sodium-coupled leucine transporter
[5] = tested on: Aquifex aeolicus; assay: Activity at Aquifex aeolicus sodium-coupled leucine transporter assessed as inhibition of L-[3H]Ala transport at 1 uM
[6] = tested on: Aquifex aeolicus; assay: Activity at Aquifex aeolicus sodium-coupled leucine transporter assessed as inhibition of L-[3H]Ala transport at 20 uM
[7] = tested on: Aquifex aeolicus; assay: Activity at Aquifex aeolicus sodium-coupled leucine transporter assessed as inhibition of L-[3H]Ala transport at 50 uM

| Compound | Kd [1] | kcat [2] | IC50 [3] | IC50 [4] | Km [5] | Vmax [5] | Km [6] | Vmax [6] | Km [7] | Vmax [7] |
| --- | --- | --- | --- | --- | --- | --- | --- | --- | --- | --- |
| CC(C)C[C@H](N)C(=O)O [LEUCINE] | 0.02 µM | 0.000333 s⁻¹ | – | – | – | – | – | – | – | – |
| CN(C)CCCN1c2ccccc2CCc2ccc(Cl)cc21 [CLOMIPRAMINE] | – | – | 250 µM | 4.7 µM | 0.42 µM | 1480 pmol/min/mg | 0.47 µM | 970 pmol/min/mg | 0.48 µM | 770 pmol/min/mg |

Source: ChEMBL document CHEMBL1147061, “Antidepressant binding site in a bacterial homologue of neurotransmitter transporters” (Nature, 2007)
